Patent US20080318977A1, “Condensed Pyridines as Kinase Inhibitors” (Palau Pharma, S.A., priority 2004, published 2008)

target: T1, p38α (Homo sapiens, UniProt Q16539); test: Inhibition of p38α enzyme activity (IMAP fluorescence polarisation kinase assay); format: biochemical; conditions: at 1 μM compound; ATP 20 μM; 2 h at RT
T1 construct: GST-tagged fusion protein corresponding to full-length human p38α; purchased Upstate 14-251; host or cells: E. coli
Description: Inhibition of p38α Enzyme Activity:
Compound stocks in 100% DMSO are first diluted in DMSO to a concentration of 1×10^−3 up to 3.2×10^−8 M and then further diluted in kinase assay buffer (10 mM Tris-HCl, pH 7.2, 10 mM MgCl2, 0.01% tween 20, 0.05% NaN3, 1 mM dithiothreitol) to a concentration range of 4×10^−5 up to 1.3×10^−9 M. Of each compound solution 5 μL is transferred into a 384-wells black Optiplate (Packard, 6007279), followed by the addition of 5 μL of ATP (Boehringer, 519987), 5 μL of Fluorescein-labeled EGFR (Epidermal Growth Factor Receptor) peptide substrate and 5 μL of active p38 cc kinase (GST-tagged fusion protein corresponding to full-length human p38α; expressed in E. coli by Upstate, 14-251), all diluted in kinase assay buffer (see final concentrations in Table 1). The mixture is incubated for 2 h at room temperature (RT). The reaction is stopped by the addition of 60 μL of IMAP binding reagent, which has been diluted 400-fold in IMAP binding buffer (stock concentration 5 times diluted in Milli Q). After incubation for 30 min at RT, FP is measured on an Analyst™ multimode fluorescence plate reader (Molecular Devices) at excitation wavelength of 485 nm and emission wavelength of 530 nm (1 sec/well).
Data handling is performed as follows: percentage effects are calculated based on no-p38-enzyme-addition as the maximum inhibitory effect and with p38 enzyme addition as the minimum inhibitory effect. In each experiment, individual compound concentrations are tested in duplicate and percentage effect is calculated for each concentration.

T1 sequence (Q16539 whole entry, the tested form may be a part): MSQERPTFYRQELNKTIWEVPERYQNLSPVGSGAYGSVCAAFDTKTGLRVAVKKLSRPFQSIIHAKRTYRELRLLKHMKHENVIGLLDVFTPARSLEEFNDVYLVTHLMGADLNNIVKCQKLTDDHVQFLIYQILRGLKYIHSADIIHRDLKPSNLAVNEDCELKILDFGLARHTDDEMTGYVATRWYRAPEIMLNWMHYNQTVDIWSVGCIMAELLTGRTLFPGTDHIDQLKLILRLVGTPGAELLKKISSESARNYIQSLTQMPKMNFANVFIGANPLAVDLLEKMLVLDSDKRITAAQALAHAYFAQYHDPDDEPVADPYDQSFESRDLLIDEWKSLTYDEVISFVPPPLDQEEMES

Inhibition at 1 µM, > 50%:
CC(=O)c1cc2nc(-c3ccc(F)cc3)c(-c3ccncc3)c(-c3ccc(F)cc3)c2n1C [Example 21, 1-[5,7-Bis(4-fluorophenyl)-1-methyl-6-(4-pyridyl)pyrrolo[3,2-b]pyridin-2-yl]ethanone]
O=C(NCCO)c1cc2c(-c3ccc(F)cc3)c(-c3ccncc3)c(-c3ccc(F)cc3)nc2o1 [Example 27, 4,6-Bis-(4-fluoro-phenyl)-5-pyridin-4-yl-furo[2,3-b]pyridine-2-carboxylic acid (2-hydroxy-ethyl)-amide]
Cn1c(CO)nc2nc(-c3ccc(F)cc3)c(-c3ccncc3)c(-c3ccc(F)cc3)c21 [Example 7, [5,7-Bis(4-fluorophenyl)-1-methyl-6-(4-pyridyl)imidazo[4,5-b]pyridin-2-yl]methanol]
Cc1nsc2nc(-c3ccc(F)cc3)c(-c3ccnc(N[C@@H](C)c4ccccc4)n3)cc12 [Example 45, (S)-{4-[6-(4-Fluoro-phenyl)-3-methyl-isothiazolo[5,4-b]pyridin-5-yl]-pyrimidin-2-yl}-(1-phenyl-ethyl)-amine]
COC(=O)c1n[nH]c2c(-c3ccc(F)cc3)c(-c3ccncc3)c(-c3ccc(F)cc3)nc12 [Example 39, 5,7-Bis-(4-fluoro-phenyl)-6-pyridin-4-yl-1H-pyrazolo[4,3-b]pyridine-3-carboxylic acid methyl ester]
Cc1nc2cc(-c3ccnc(N[C@@H](C)c4ccccc4)n3)c(-c3ccc(F)cc3)nc2s1 [Example 56, (S)-{4-[5-(4-Fluoro-phenyl)-2-methyl-thiazolo[5,4-b]pyridin-6-yl]-pyrimidin-2-yl}-(1-phenyl-ethyl)-amine]
CCN(CC(=O)OC)Cc1cc2nc(-c3ccc(F)cc3)c(-c3ccncc3)c(-c3ccc(F)cc3)c2n1C [Example 35, {[5,7-Bis-(4-fluoro-phenyl)-1-methyl-6-pyridin-4-yl-1H-pyrrolo[3,2-b]pyridin-2-ylmethyl]-N-ethyl-amino}-acetic acid methyl ester]
O=C(NCCO)c1n[nH]c2c(-c3ccc(F)cc3)c(-c3ccncc3)c(-c3ccc(F)cc3)nc12 [Example 54, 5,7-Bis-(4-fluoro-phenyl)-6-pyridin-4-yl-1H-pyrazolo[4,3-b]pyridine-3-carboxylic acid (2-hydroxy-ethyl)-amide]
Cn1c(CO)cc2nc(-c3ccc(F)cc3)c(-c3ccncc3)c(-c3ccc(F)cc3)c21 [Example 6, [5,7-Bis(4-fluorophenyl)-1-methyl-6-(4-pyridyl)pyrrolo[3,2-b]pyridin-2-yl]methanol]
